Measured values from PubChem BioAssay (NCI).
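In this assay, cells in 96-well plates receive the compound at five concentrations for 48 hours. Endpoints are linearly interpolated between the surrounding concentrations. Definition used: TGI = concentration required for complete inhibition of growth.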

Key:
Assay in all cases: inhibition of tumour cell growth, NCI panel, 48 h
SK-MEL-2 melanoma = test system: SK-MEL-2 melanoma
KM12 colon = test system: KM12 colon
K-562 leukemia = test system: K-562 leukemia
HCT-15 colon = test system: HCT-15 colon
HOP-62 NSCLC = test system: HOP-62 NSCLC
OVCAR-8 ovarian = test system: OVCAR-8 ovarian
UO-31 renal = test system: UO-31 renal
SK-MEL-5 melanoma = test system: SK-MEL-5 melanoma
SNB-19 CNS = test system: SNB-19 CNS
PC-3 prostate = test system: PC-3 prostate
UACC-257 melanoma = test system: UACC-257 melanoma
OVCAR-3 ovarian = test system: OVCAR-3 ovarian
NCI-H226 lung = test system: NCI-H226 lung

SMILES | TGI (SK-MEL-2 melanoma) [µM] | TGI (KM12 colon) [µM] | TGI (K-562 leukemia) [µM] | TGI (HCT-15 colon) [µM] | TGI (HOP-62 NSCLC) [µM] | TGI (OVCAR-8 ovarian) [µM] | TGI (UO-31 renal) [µM] | TGI (SK-MEL-5 melanoma) [µM] | TGI (SNB-19 CNS) [µM] | TGI (PC-3 prostate) [µM] | TGI (UACC-257 melanoma) [µM] | TGI (OVCAR-3 ovarian) [µM] | TGI (NCI-H226 lung) [µM]
O=C1/C(=C/Cc2ccco2)N=C(c2ccccc2)N1c1nc2c(Cl)cc(Cl)cc2s1 | 63.5 | > 100 | > 100 | > 100 | > 100 | > 100 | 72.8 | > 100 | > 100 | 74.8 | > 100 | 52.6 | –
COc1ccc(C2=C(N)c3cc(OC)ccc3C2=O)cc1 | > 100 | > 100 | – | > 100 | > 100 | > 100 | – | > 100 | > 100 | > 100 | > 100 | > 100 | > 100
CC1CC/C(=C\c2ccc(F)cc2)C2=C1C(c1ccc(F)cc1)NC(=S)N2 (configuration not stated) | > 100 | > 100 | > 100 | > 100 | – | > 100 | > 100 | > 100 | > 100 | > 100 | > 100 | > 100 | > 100
Nc1nc(Cl)cc(NCC2CC(O)(CO)C2)n1 (configuration not stated) | > 100 | > 100 | > 100 | > 100 | > 100 | > 100 | > 100 | > 100 | – | > 100 | > 100 | > 100 | > 100
CN(C)CCSc1nccc(-c2ccc(-c3ccnc(SCCN(C)C)n3)s2)n1 | 29.5 | 16 | 23.2 | 17.3 | 30.6 | 31.4 | 16.6 | 31 | 38.8 | – | 31.1 | 31.2 | 27.7
O=S1(=O)OCCOS(=O)(=O)C1S(=O)(=O)c1cccc2ccccc12 | > 100 | > 100 | > 100 | > 100 | > 100 | > 100 | > 100 | > 100 | – | > 100 | > 100 | > 100 | –
CCOC(=O)CCN1C(=O)c2c(NC(=O)C(=O)O)cccc2S1(=O)=O | > 100 | > 100 | > 100 | > 100 | > 100 | > 100 | > 100 | – | > 100 | > 100 | > 100 | – | > 100
CC1=CCC(=O)[C@]2(C)C(CC(=O)O)[C@]3(C)C4=C(C)C(c5ccoc5)C[C@@H]4O[C@@H]3[C@H](O)[C@@H]12 (some centres not stated) | > 100 | > 100 | – | > 100 | – | > 100 | > 100 | > 100 | > 100 | > 100 | > 100 | > 100 | –
O=c1cc(-c2ccccc2)[nH]c2c(F)ccc(F)c12 | 77.1 | > 100 | > 100 | > 100 | > 100 | > 100 | > 100 | > 100 | – | – | > 100 | – | > 100
COc1ccc(C2CCc3c(cnc4nc(N)nc(N)c34)C2)cc1 (configuration not stated) | > 100 | > 100 | > 100 | > 100 | 65 | > 100 | – | > 100 | > 100 | > 100 | > 100 | > 100 | > 100
Cc1nc2ccccc2nc1N1CCCC1 | > 100 | > 100 | > 100 | > 100 | > 100 | > 100 | – | > 100 | > 100 | > 100 | > 100 | – | > 100
Cn1c(-c2cccs2)cc(-c2ccsc2)c1-c1ccsc1 | – | > 100 | > 100 | > 100 | > 100 | > 100 | > 100 | > 100 | > 100 | > 100 | > 100 | > 100 | > 100
C[C@@H]1CC(=O)[C@@]2(C)[C@](O)(CCC3O[C@]32C)[C@@]12CC(c1ccoc1)OC2=O (some centres not stated) | > 100 | > 100 | > 100 | > 100 | – | > 100 | > 100 | > 100 | > 100 | > 100 | > 100 | > 100 | > 100
COc1ccc(Cn2nc(OCc3ccccc3)c3cc([N+](=O)[O-])ccc32)cc1 | > 100 | > 100 | > 100 | > 100 | > 100 | > 100 | – | > 100 | > 100 | – | > 100 | > 100 | > 100
Oc1[nH]c2ccccc2c1N=NC(=S)NCc1ccccn1 | 28.7 | 19.6 | – | 33.2 | 6.87 | 26.7 | 6.56 | 12 | 15.2 | 17.5 | 13.7 | 15.3 | 10.5
COc1ccc(-c2nc3ncccn3c2-c2ccc(S(C)(=O)=O)cc2)cc1 | > 100 | > 100 | > 100 | > 100 | > 100 | > 100 | > 100 | > 100 | > 100 | > 100 | > 100 | > 100 | –
CCOC(=O)C1=C(C)N(c2ccc(Cl)cc2)C2(O)C=CC(=O)C3C(=O)N(c4ccccc4)C(=O)C132 (configuration not stated) | 3.53 | 3.52 | 9.03 | 4.37 | 4.19 | 6.32 | 3.31 | 3.47 | 8.1 | 3.49 | 6.76 | 2.75 | –
c1ccc(C2C3=C(CCCC3)Nc3nnnn32)cc1 (configuration not stated) | > 100 | > 100 | > 100 | > 100 | > 100 | > 100 | > 100 | > 100 | > 100 | > 100 | > 100 | > 100 | –
